Measurements as given in patent US7713994B2 (Wyeth LLC, priority 2005, dated 2010).

target: T1, cyclin D1/cdk 4 enzyme (Homo sapiens, UniProt P11802); experiment: CDK4 ELISA kinase assay (phospho-Rb ser 795 detection); format: biochemical; conditions: In Vitro Enzyme Assay, cyclin D1/cdk 4, read-out: CDK4 IC50
T1 construct: made in house; host or cells: Sf9 insect cells, recombinant baculovirus
Procedure, shortened: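 Partially purified Sf9-expressed cyclin D1/CDK4, cyclin E/CDK2 or cyclin B/CDK1 phosphorylated plate-bound GST-Rb C-terminal fragment with 200 μM ATP at 30° C for 1 h.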

T1 sequence (P11802 whole entry, species assumed): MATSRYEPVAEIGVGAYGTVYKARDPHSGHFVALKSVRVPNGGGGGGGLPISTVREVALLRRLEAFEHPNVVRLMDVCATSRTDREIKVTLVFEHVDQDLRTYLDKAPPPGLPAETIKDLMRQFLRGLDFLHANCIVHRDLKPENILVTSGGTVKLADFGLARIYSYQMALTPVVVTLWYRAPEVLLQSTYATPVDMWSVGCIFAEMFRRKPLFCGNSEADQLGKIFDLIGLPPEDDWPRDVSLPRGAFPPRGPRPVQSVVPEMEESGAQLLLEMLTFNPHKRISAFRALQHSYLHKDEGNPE
T1 sequence (P24385 whole entry partner, species assumed): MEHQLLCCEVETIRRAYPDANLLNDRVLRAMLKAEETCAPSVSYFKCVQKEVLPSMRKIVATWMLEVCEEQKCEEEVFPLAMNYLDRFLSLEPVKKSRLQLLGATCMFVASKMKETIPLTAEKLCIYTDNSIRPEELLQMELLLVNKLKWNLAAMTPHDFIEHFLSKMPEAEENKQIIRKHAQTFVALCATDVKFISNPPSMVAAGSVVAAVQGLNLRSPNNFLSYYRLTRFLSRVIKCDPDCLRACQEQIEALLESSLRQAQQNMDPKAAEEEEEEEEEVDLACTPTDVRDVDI

| IC50 [µM] | SMILES |
| --- | --- |
| 20.9 | CN1CCN(c2ccc(NC=C3C(=O)NC(=O)c4ccc(-c5ccc(C(F)(F)F)cc5)cc43)cc2)CC1 [Example 687, 4-{[4-(4-Methyl-piperazin-1-yl)-phenylamino]-methylene}-6-(4-trifluoromethyl-phenyl)-4H-isoquinoline-1,3-dione] |
| 20.7 | CN1CCN(c2ccc(NC=C3C(=O)NC(=O)c4ccc(-c5cccc(Cl)c5)cc43)cc2)CC1 [Example 690, 6-(3-Chloro-phenyl)-4-{[4-(4-methyl-piperazin-1-yl)-phenylamino]-methylene}-4H-isoquinoline-1,3-dione] |
| 30.7 | Cc1ccc(-c2ccc3c(c2)C(=CNc2ccc(N4CCN(C)CC4)cc2)C(=O)NC3=O)cc1 [Example 692, 4-{[4-(4-Methyl-piperazin-1-yl)-phenylamino]-methylene}-6-p-tolyl-4H-isoquinoline-1,3-dione] |
| 25.7 | Cc1cccc(-c2ccc3c(c2)C(=CNc2ccc(N4CCN(C)CC4)cc2)C(=O)NC3=O)c1 [Example 693, 4-{[4-(4-Methyl-piperazin-1-yl)-phenylamino]-methylene}-6-m-tolyl-4H-isoquinoline-1,3-dione] |
| 32.3 | Cc1ccccc1-c1ccc2c(c1)C(=CNc1ccc(N3CCN(C)CC3)cc1)C(=O)NC2=O [Example 694, 4-{[4-(4-Methyl-piperazin-1-yl)-phenylamino]-methylene}-6-o-tolyl-4H-isoquinoline-1,3-dione] |

Second part, the molecule before the results:

| SMILES | IC50 [µM] |
| --- | --- |
| CN1CCN(c2ccc(NC=C3C(=O)NC(=O)c4ccc(-c5ccc6ccccc6c5)cc43)cc2)CC1 [Example 668, 4-{[4-(4-Methyl-piperazin-1-yl)-phenylamino]-methylene}-6-naphthalen-2-yl-4H-isoquinoline-1,3-dione] | 21.9 |
| CN1CCN(c2ccc(NC=C3C(=O)NC(=O)c4ccc(-c5cc6ccccc6s5)cc43)cc2)CC1 [Example 670, 6-Benzo[b]thiophen-2-yl-4-{[4-(4-methyl-piperazin-1-yl)-phenylamino]-methylene}-4H-isoquinoline-1,3-dione] | 39.8 |
| CN1CCN(c2ccc(NC=C3C(=O)NC(=O)c4ccc(C=Cc5ccc6ccccc6c5)cc43)cc2)CC1 [Example 674, 4-{[4-(4-Methyl-piperazin-1-yl)-phenylamino]-methylene}-6-(2-naphthalen-2-yl-vinyl)-4H-isoquinoline-1,3-dione] | 11.7 |
| CN1CCN(c2ccc(NC=C3C(=O)NC(=O)c4ccc(C=Cc5ccccc5)cc43)cc2)CC1 [Example 677, 4-{[4-(4-Methyl-piperazin-1-yl)-phenylamino]-methylene}-6-styryl-4H-isoquinoline-1,3-dione] | 14.3 |
| Cc1ncsc1C=Cc1ccc2c(c1)C(=CNc1ccc(N3CCN(C)CC3)cc1)C(=O)NC2=O [Example 681, 4-{[4-(4-Methyl-piperazin-1-yl)-phenylamino]-methylene}-6-[2-(4-methyl-thiazol-5-yl)-vinyl]-4H-isoquinoline-1,3-dione] | 17.7 |
| COc1ccccc1-c1ccc2c(c1)C(=CNc1ccc(N3CCN(C)CC3)cc1)C(=O)NC2=O [Example 683, 6-(2-Methoxy-phenyl)-4-{[4-(4-methyl-piperazin-1-yl)-phenylamino]-methylene}-4H-isoquinoline-1,3-dione] | 32.9 |
| CN1CCN(c2ccc(NC=C3C(=O)NC(=O)c4ccc(-c5ccccc5F)cc43)cc2)CC1 [Example 684, 6-(2-Fluoro-phenyl)-4-{[4-(4-methyl-piperazin-1-yl)-phenylamino]-methylene}-4H-isoquinoline-1,3-dione] | 12.4 |
| CN1CCN(c2ccc(NC=C3C(=O)NC(=O)c4ccc(-c5cccc(C(=O)O)c5)cc43)cc2)CC1 [Example 686, 3-(4-{[4-(4-Methyl-piperazin-1-yl)-phenylamino]-methylene}-1,3-dioxo-1,2,3,4-tetrahydro-isoquinolin-6-yl)-benzoic acid] | 6.4 |
